Reference: patent US20240384350A1, “METHODS OF TREATING CANCER WITH KINASE INHIBITORS” (BOARD OF REGENTS, THE UNIVERSITY OF TEXAS SYSTEM, priority 2021, published 2024)

Legend:
Experiment in all cases: Ba/F3 drug screening, Cell Titer Glo, IC50 Mut/WT
Assay type in all cases: cell-based
EGFR L858R T790M V843I = target: T1, EGFR L858R T790M V843I (Homo sapiens, UniProt P00533, L858R/T790M/V843I); conditions: T790M-like-3S, 72 hours
T1 construct: expressed in transfected cells; host or cells: Ba/F3

EGFR S768I = target: T2, EGFR S768I (Homo sapiens, UniProt P00533, S768I); conditions: Ba/F3 cells, EGFR S768I (PACC), Mut/WT
T2 construct: expressed in transfected cells; host or cells: Ba/F3
Method: (§1) Data represent the ratio of the IC50 value for a given TKI for cells with a PACC EGFR mutation to the IC50 value for cells with wildtype EGFR.
(§2) Ba/F3 cell generation, drug screening, and IC50 approximations. Ba/F3 cells were obtained as a gift from Dr. Gordon Mills (MD Anderson Cancer Center), and maintained in RPMI (Sigma) containing 10% FBS, 1% penicillin/streptomycin, and 10 ng/ml recombinant mIL-3 (R&D Biosystems). To establish stable Ba/F3 cell lines, Ba/F3 cells were transduced with retroviruses containing mutant EGFR plasmids for 12-24 hours.
(§3) After 48-72 hours of transduction, 2 μg/ml puromycin (Invitrogen) was added to Ba/F3 cell lines in complete RPMI. To select for EGFR positive cell lines, cells were stained with PE-EGFR (Biolegend) and sorted by FACS. After sorting, EGFR positive cells were maintained in RPMI containing 10% FBS, 1% penicillin/streptomycin, and 1 ng/ml EGF to support cell viability. Drug screening was performed as previously described^41,42. Shortly, cells were plated in 384-well plates (Greiner Bio-One) at 2000-3000 cells per well in technical triplicate. Seven different concentrations of TKIs or DMSO vehicle were added to reach a final volume of 40 μL per well. After 72 hours, 11 μL of Cell Titer Glo (Promega) was added to each well. Plates were incubated for a minimum of 10 minutes, and bioluminescence was determined using a FLUOstar OPTIMA plate reader (BMG LABTECH). Raw bioluminescence values were normalized to DMSO control treated cells, and values were plotted in GraphPad Prism. […] Drug screens were performed in technical triplicate on each plate and either duplicate or triplicate biological replicates. […] Statistical differences between groups were determined by ANOVA as described in the figure legends.

EGFR Ex19del/T790M/G724S = target: T3, EGFR Ex19del/T790M/G724S (Homo sapiens, UniProt P00533, DEL746-750/G724S/T790M); conditions: T790M-like-3S, 72 hours
T3 construct: expressed in transfected cells; host or cells: Ba/F3

EGFR L858R S784F = target: T4, EGFR L858R S784F (Homo sapiens, UniProt P00533, L858R/S784F); conditions: Classical-Like, 72 hours
T4 construct: expressed in transfected cells; host or cells: Ba/F3 cells, retroviral pBabe-Puro vector (vector made by GeneScript from EGFR L858R)
Method: (§4) Data represent the ratio of the IC50 value for a given TKI for cells with a classical-like EGFR mutation to the IC50 value for cells with wildtype EGFR.
as §2
(§5) After 48-72 hours of transduction, 2 μg/ml puromycin (Invitrogen) was added to Ba/F3 cell lines in complete RPMI. To select for EGFR positive cell lines, cells were stained with PE-EGFR (Biolegend) and sorted by FACS. After sorting, EGFR positive cells were maintained in RPMI containing 10% FBS, 1% penicillin/streptomycin, and 1 ng/ml EGF to support cell viability. […] Shortly, cells were plated in 384-well plates (Greiner Bio-One) at 2000-3000 cells per well in technical triplicate. Seven different concentrations of TKIs or DMSO vehicle were added to reach a final volume of 40 μL per well. After 72 hours, 11 μL of Cell Titer Glo (Promega) was added to each well. Plates were incubated for a minimum of 10 minutes, and bioluminescence was determined using a FLUOstar OPTIMA plate reader (BMG LABTECH). Raw bioluminescence values were normalized to DMSO control treated cells, and values were plotted in GraphPad Prism. […] Drug screens were performed in technical triplicate on each plate and either duplicate or triplicate biological replicates.

EGFR L858R T790M L718V = target: T5, EGFR L858R T790M L718V (Homo sapiens, UniProt P00533, L718V/L858R/T790M); conditions: T790M-like-3R, 72 hours
T5 construct: expressed in transfected cells; host or cells: Ba/F3

EGFR A767insASV = target: T6, EGFR A767insASV (Homo sapiens, UniProt P00533, DUP767-769); conditions: Ex20, 72 hours
T6 construct: expressed in transfected cells; host or cells: Ba/F3 cells, retroviral pBabe-Puro vector

EGFR L833V = target: T7, EGFR L833V (Homo sapiens, UniProt P00533, L833V); conditions: Classical-Like, 72 hours
T7 construct: expressed in transfected cells; host or cells: Ba/F3 cells, retroviral pBabe-Puro vector
Method: as §4, §2, §5

EGFR L858R/T790M/L718Q = target: T8, EGFR L858R/T790M/L718Q (Homo sapiens, UniProt P00533, L718Q/L858R/T790M); conditions: T790M-like-3R, 72 hours
T8 construct: expressed in transfected cells; host or cells: Ba/F3

EGFR L858R L718Q = target: T9, EGFR L858R L718Q (Homo sapiens, UniProt P00533, L718Q/L858R); conditions: Ba/F3 cells, EGFR L858R L718Q (PACC), Mut/WT
T9 construct: host or cells: Ba/F3
Method: as §1, §2
(§6) After 48-72 hours of transduction, 2 μg/ml puromycin (Invitrogen) was added to Ba/F3 cell lines in complete RPMI. To select for EGFR positive cell lines, cells were stained with PE-EGFR (Biolegend) and sorted by FACS. After sorting, EGFR positive cells were maintained in RPMI containing 10% FBS, 1% penicillin/streptomycin, and 1 ng/ml EGF to support cell viability. Drug screening was performed as previously described^41,42. Shortly, cells were plated in 384-well plates (Greiner Bio-One) at 2000-3000 cells per well in technical triplicate. Seven different concentrations of TKIs or DMSO vehicle were added to reach a final volume of 40 μL per well. After 72 hours, 11 μL of Cell Titer Glo (Promega) was added to each well. Plates were incubated for a minimum of 10 minutes, and bioluminescence was determined using a FLUOstar OPTIMA plate reader (BMG LABTECH). Raw bioluminescence values were normalized to DMSO control treated cells, and values were plotted in GraphPad Prism. […] Drug screens were performed in technical triplicate on each plate and either duplicate or triplicate biological replicates.

EGFR L833F = target: T10, EGFR L833F (Homo sapiens, UniProt P00533, L833F); conditions: Classical-Like, 72 hours
T10 construct: expressed in transfected cells; host or cells: Ba/F3 cells, retroviral pBabe-Puro vector
Method: as §4, §2, §5

EGFR V774M = target: T11, EGFR V774M (Homo sapiens, UniProt P00533, V774M); conditions: Ba/F3 cells, EGFR V774M (PACC), Mut/WT
T11 construct: host or cells: Ba/F3

EGFR L858R G724S = target: T12, EGFR L858R G724S (Homo sapiens, UniProt P00533, G724S/L858R); conditions: Ba/F3 cells, EGFR L858R G724S (PACC), Mut/WT
T12 construct: expressed in transfected cells; host or cells: Ba/F3 (retroviral transduction, pBabe-Puro based vectors)

EGFR Ex19del/L792H = target: T13, EGFR Ex19del/L792H (Homo sapiens, UniProt P00533, DEL746-750/L792H); conditions: Ba/F3 cells, EGFR Ex19del/L792H (PACC), Mut/WT
T13 construct: expressed in transfected cells; host or cells: Ba/F3
Method: as §1, §2, §6

EGFR S768I/T790M = target: T14, EGFR S768I/T790M (Homo sapiens, UniProt P00533, S768I/T790M); conditions: T790M-like-3S, 72 hours
T14 construct: expressed in transfected cells; host or cells: Ba/F3

EGFR K757R = target: T15, EGFR K757R (Homo sapiens, UniProt P00533, K757R); conditions: Ba/F3 cells, EGFR K757R (PACC), Mut/WT
T15 construct: expressed in transfected cells; host or cells: Ba/F3
Method: as §1, §2, §3

EGFR D770insNPG = target: T16, EGFR D770insNPG (Homo sapiens, UniProt P00533, INS770NPG); conditions: Ex20, 72 hours
T16 construct: expressed in transfected cells; host or cells: Ba/F3 cells, retroviral pBabe-Puro vector

EGFR E709A G719S = target: T17, EGFR E709A G719S (Homo sapiens, UniProt P00533, E709A/G719S); conditions: Ba/F3 cells, EGFR E709A G719S (PACC), Mut/WT
T17 construct: expressed in transfected cells; host or cells: Ba/F3

EGFR V769L = target: T18, EGFR V769L (Homo sapiens, UniProt P00533, V769L); conditions: Ba/F3 cells, EGFR V769L (PACC), Mut/WT
T18 construct: expressed in transfected cells; host or cells: Ba/F3

EGFR Ex19del T854I = target: T19, EGFR Ex19del T854I (Homo sapiens, UniProt P00533, DEL746-750/T854I); conditions: Ba/F3 cells, EGFR Ex19del T854I (PACC), Mut/WT
T19 construct: expressed in transfected cells; host or cells: Ba/F3 (retroviral transduction, pBabe-Puro based vectors)
Method: as §1, §2, §6

EGFR H773insNPH = target: T20, EGFR H773insNPH (Homo sapiens, UniProt P00533, INS773NPH); conditions: Ex20, 72 hours
T20 construct: expressed in transfected cells; host or cells: Ba/F3 cells, retroviral pBabe-Puro vector

[1] = target: T21, EGFR L747_K754del insATSPE (Homo sapiens, UniProt P00533, DEL747-749/K754E); conditions: T790M-like-3S, 72 hours
T21 construct: expressed in transfected cells; host or cells: Ba/F3 cells, retroviral pBabe-Puro vector
Method: Data represent the ratio of the IC50 value for a given TKI for cells with a T790M-like-3S EGFR mutation to the IC50 value for cells with wildtype EGFR.
as §2, §6

EGFR R776C = target: T22, EGFR R776C (Homo sapiens, UniProt P00533, R776C); conditions: Ba/F3 cells, EGFR R776C (PACC), Mut/WT
T22 construct: host or cells: Ba/F3
Method: as §1, §2, §6

EGFR R776H = target: T23, EGFR R776H (Homo sapiens, UniProt P00533, R776H); conditions: Ba/F3 cells, EGFR R776H (PACC), Mut/WT
T23 construct: host or cells: Ba/F3
Method: as §1, §2, §6

EGFR S811F = target: T24, EGFR S811F (Homo sapiens, UniProt P00533, S811F); conditions: Classical-Like, 72 hours
T24 construct: expressed in transfected cells; host or cells: Ba/F3 cells, retroviral pBabe-Puro vector (vector made by GeneScript from EGFR WT)
Method: as §4, §2, §5

EGFR L718Q = target: T25, EGFR L718Q (Homo sapiens, UniProt P00533, L718Q); conditions: Ba/F3 cells, EGFR L718Q (PACC), Mut/WT
T25 construct: expressed in transfected cells; host or cells: Ba/F3
Method: as §1, §2, §6

EGFR L718Q T790M = target: T26, EGFR L718Q T790M (Homo sapiens, UniProt P00533, L718Q/T790M); conditions: T790M-like-3R, 72 hours
T26 construct: expressed in transfected cells; host or cells: Ba/F3
Method: Data represent the ratio of the IC50 value for a given TKI for cells with a T790M-like-3R EGFR mutation to the IC50 value for cells with wildtype EGFR.
as §2
After 48-72 hours of transduction, 2 μg/ml puromycin (Invitrogen) was added to Ba/F3 cell lines in complete RPMI. To select for EGFR positive cell lines, cells were stained with PE-EGFR (Biolegend) and sorted by FACS. After sorting, EGFR positive cells were maintained in RPMI containing 10% FBS, 1% penicillin/streptomycin, and 1 ng/ml EGF to support cell viability. […] Shortly, cells were plated in 384-well plates (Greiner Bio-One) at 2000-3000 cells per well in technical triplicate. Seven different concentrations of TKIs or DMSO vehicle were added to reach a final volume of 40 μL per well. After 72 hours, 11 μL of Cell Titer Glo (Promega) was added to each well. Plates were incubated for a minimum of 10 minutes, and bioluminescence was determined using a FLUOstar OPTIMA plate reader (BMG LABTECH). Raw bioluminescence values were normalized to DMSO control treated cells, and values were plotted in GraphPad Prism. […] Drug screens were performed in technical triplicate on each plate and either duplicate or triplicate biological replicates. […] Statistical differences between groups were determined by ANOVA as described in the figure legends.

Structure (SMILES) | ratio of IC50 for cells with mutant EGFR to IC50 for cells with wildtype EGFR (Mut/WT) (EGFR L858R T790M V843I) | ratio of the IC50 value for cells with a PACC EGFR mutation to the IC50 value for cells with wildtype EGFR (EGFR S768I) | ratio of IC50 for cells with mutant EGFR to IC50 for cells with wildtype EGFR (Mut/WT) (EGFR Ex19del/T790M/G724S) | ratio of IC50 for cells with mutant EGFR to IC50 for cells with wildtype EGFR (Mut/WT) (EGFR L858R S784F) | ratio of IC50 for cells with mutant EGFR to IC50 for cells with wildtype EGFR (Mut/WT) (EGFR L858R T790M L718V) | ratio of IC50 for cells with mutant EGFR to IC50 for cells with wildtype EGFR (Mut/WT) (EGFR A767insASV) | ratio of IC50 for cells with mutant EGFR to IC50 for cells with wildtype EGFR (Mut/WT) (EGFR L833V) | ratio of IC50 for cells with mutant EGFR to IC50 for cells with wildtype EGFR (Mut/WT) (EGFR L858R/T790M/L718Q) | ratio of the IC50 value for cells with a PACC EGFR mutation to the IC50 value for cells with wildtype EGFR (EGFR L858R L718Q) | ratio of IC50 for cells with mutant EGFR to IC50 for cells with wildtype EGFR (Mut/WT) (EGFR L833F) | ratio of the IC50 value for cells with a PACC EGFR mutation to the IC50 value for cells with wildtype EGFR (EGFR V774M) | ratio of the IC50 value for cells with a PACC EGFR mutation to the IC50 value for cells with wildtype EGFR (EGFR L858R G724S) | ratio of the IC50 value for cells with a PACC EGFR mutation to the IC50 value for cells with wildtype EGFR (EGFR Ex19del/L792H) | ratio of IC50 for cells with mutant EGFR to IC50 for cells with wildtype EGFR (Mut/WT) (EGFR S768I/T790M) | ratio of the IC50 value for cells with a PACC EGFR mutation to the IC50 value for cells with wildtype EGFR (EGFR K757R) | ratio of IC50 for cells with mutant EGFR to IC50 for cells with wildtype EGFR (Mut/WT) (EGFR D770insNPG) | ratio of the IC50 value for cells with a PACC EGFR mutation to the IC50 value for cells with wildtype EGFR (EGFR E709A G719S) | ratio of the IC50 value for cells with a PACC EGFR mutation to the IC50 value for cells with wildtype EGFR (EGFR V769L) | ratio of the IC50 value for cells with a PACC EGFR mutation to the IC50 value for cells with wildtype EGFR (EGFR Ex19del T854I) | ratio of IC50 for cells with mutant EGFR to IC50 for cells with wildtype EGFR (Mut/WT) (EGFR H773insNPH) | other results
C=CC(=O)N1CC[C@@H](Oc2nc(Nc3ccc(N4CCC(N5CCN(C)CC5)CC4)cc3)c(C(N)=O)nc2CC)C1 [Naquotinib] | 0.01519 | 1.09 | 0.02849 | 0.1921 | 0.6413 | 1.61 | 0.02478 | 0.6815 | 5.547 | 0.03054 | 0.2862 | 0.5799 | 0.02929 | 0.1426 | 1.658 | 1.296 | 0.3574 | 1.624 | 1.06 | 1.077 | ratio of IC50 for cells with mutant EGFR to IC50 for cells with wildtype EGFR (Mut/WT) [1]: 0.00433; ratio of the IC50 value for cells with a PACC EGFR mutation to the IC50 value for cells with wildtype EGFR (EGFR R776C): 4.27; ratio of the IC50 value for cells with a PACC EGFR mutation to the IC50 value for cells with wildtype EGFR (EGFR R776H): 0.5095; ratio of IC50 for cells with mutant EGFR to IC50 for cells with wildtype EGFR (Mut/WT) (EGFR S811F): 0.0351; ratio of the IC50 value for cells with a PACC EGFR mutation to the IC50 value for cells with wildtype EGFR (EGFR L718Q): 5.448; ratio of IC50 for cells with mutant EGFR to IC50 for cells with wildtype EGFR (Mut/WT) (EGFR L718Q T790M): 1.576
Cc1cc(C(=O)Nc2nc3cccc(Cl)c3n2[C@@H]2CCCCN(C(=O)/C=C/CN(C)C)C2)ccn1 [Nazartinib] | 0.02498 | 0.5273 | 0.06117 | 0.03577 | 0.6592 | 0.6382 | 0.002739 | 0.7714 | 0.6234 | 0.0584 | 0.1179 | 0.009244 | 0.5146 | 0.0197 | 0.3486 | 0.529 | 0.09237 | 0.1771 | 1.135 | 0.4242 | ratio of IC50 for cells with mutant EGFR to IC50 for cells with wildtype EGFR (Mut/WT) [1]: 0.001195; ratio of the IC50 value for cells with a PACC EGFR mutation to the IC50 value for cells with wildtype EGFR (EGFR R776C): 0.2846; ratio of the IC50 value for cells with a PACC EGFR mutation to the IC50 value for cells with wildtype EGFR (EGFR R776H): 0.03601; ratio of IC50 for cells with mutant EGFR to IC50 for cells with wildtype EGFR (Mut/WT) (EGFR S811F): 0.00115; ratio of the IC50 value for cells with a PACC EGFR mutation to the IC50 value for cells with wildtype EGFR (EGFR L718Q): 1.245; ratio of IC50 for cells with mutant EGFR to IC50 for cells with wildtype EGFR (Mut/WT) (EGFR L718Q T790M): 0.317
